Results published in patent US12435069B2, “Cocrystals of posaconazole, methods of making and using same” (REGENTS OF THE UNIVERSITY OF MICHIGAN, priority 2019, dated 2025).
Converted amounts (≈) assume the structure as drawn. “And” between values parts separate entries of the source, which are not always exact repeats. Identical values can stand only once. Like-named read-outs stand apart in the source and are kept apart here. Blank lines part the entries; values can stand above or below the compound they belong to.

Columns and labels:
[1] = Dissolution of drug or cocrystal in biorelevant media (FaSSIF, FeSSIF); assay type: physicochemical; conditions: for Cmax / AUC (area under the dissolution curve): 25 °C; for Cmax: 150 rpm, 3 h, 300 mg dose in 250 mL equivalent; for AUC (area under the dissolution curve): up to 180 min; for Final pH: after dissolution
Description: (§1) Blank FaSSIF (pH 6.50 phosphate buffer) was prepared at room temperature by dissolving 0.683 g of NaOH (pellets), 7.902 g of NaH2PO4·H2O, and 12.372 g NaCl in 2 L of purified deionized (DI) water. The pH was adjusted to 6.50 (±0.04) with 1 M NaOH and 1 M HCl solutions. Blank FeSSIF (pH 5.00 acetate buffer) was prepared at room temperature by dissolving 8.089 g NaOH (pellets), 16.4 mL acetic acid, and 23.748 g NaCl in 2 L of purified DI water. The pH was adjusted to 5.00 (±0.03) with 1 M NaOH and 1 M HCl solutions. FaSSIF and FeSSIF media were prepared by dissolving appropriate amounts of FaSSIF/FeSSIF powder in the blank media according to the manufacturer, then stored at room temperature and used within 48 hours. Blank FaSSGF (pH 1.60 buffer) was prepared at room temperature by dissolving 1.999 g of sodium chloride in 1 L of DI water. The pH was adjusted to 1.60 (±0.05) with 2 M HCl solution.
Dissolution studies of drug or cocrystal were conducted using an overhead stirrer with a glass propeller at 150 rpm over three hours. Based on a 300 mg dose in 250 mL, 36 mg of PSZ drug or 46.6 mg PSZ-4ABA cocrystal (molar equivalent PSZ amount) were added to 30 mL of dissolution media. Dissolution studies were done in FaSSIF and FeSSIF with sieved fractions of drug and cocrystals in a particle size range of 106 to 125 μm. The dissolution experiments were conducted in a water bath at 25.0 (±0.5) ° C. Initial and final solution pH was measured. Aliquots of 0.5 mL were taken with a syringe at time points up to 180 minutes. The solution samples were filtered through syringe filter with PvDF membrane of a pore size of 0.45 μm. The solution concentrations of drug and coformer were analyzed with a Waters HPLC equipped with a photodiode array UV detector. A Waters Atlantis C18 column with the dimension of 5 μm, 250×4.6 mm was used for separation. A gradient method using methanol and water with 0.1% trifluoroacetic acid was run with the flow rate set at 1 mL/min. […] The wavelengths used for the analytes were […] for PSZ, and 287 nm for 4ABA.

[2] = Cocrystal eutectic constant (Keu): coformer and drug concentrations at the eutectic point in buffers and biorelevant media; assay type: physicochemical; conditions: for Keu ([coformer]eu/[drug]eu) / [4ABA]eu (coformer concentration at the eutectic point) / solubility: 25 °C; for solubility: thermodynamic from solid, read-out: [PSZ]eu (also solubility of drug at equilibrium)
Description: as §1
Cocrystal eutectic constant (Keu), which is well recognized as a key stability and solubility indicator, was determined from measurement of coformer and drug concentrations at the eutectic point, where drug and cocrystal solid phases are in equilibrium with solution according to Keu=[coformer]eu/[drug]eu. An excess amount of PSZ (approximately 200 mg) and 150 mg of PSZ-4ABA were suspended in 3 mL of blank FaSSGF, blank FaSSIF, blank FeSSIF, FaSSIF, or FeSSIF media. Biorelevant media included FaSSIF and FeSSIF. Blank media was the buffer solution in the biorelevant media without the lecithin and bile salt. The suspensions were kept in a water bath at 25.0±0.1° C. and magnetically stirred for up to 72-96 hours. Sample solutions were filtered through 0.45 μm cellulose acetate filters and analyzed by HPLC. The pH was measured and the equilibrium solids were characterized by DSC and PXRD.
Keu is proportional to the cocrystal solubility advantage over drug (SA=Scc/Sdrug), and for a 2:3 cocrystal is given by
[formula] […] Scc is lower than Sdrug when Keu is lower than 1.5. See is equal to Sdrug when Keu is equal to 1.5. The higher the Keu value, the higher is the cocrystal solubility advantage over drug (SA) and Scc.

[3] = in vivo; cited from earlier work
[4] = cited from earlier work

RAUC (AUCPSZ-4ABA/AUCPSZ) ([1]; FaSSIF): 4.1 and 4.1 ± 0.3
Cmax ([1]; FaSSIF): 48 ± 4 µM
AUC (area under the dissolution curve) ([1]; FaSSIF): 3052 ± 209 µM·min
Final pH ([1]; FaSSIF): 6.37 ± 0.01
RAUC (AUCPSZ-4ABA/AUCPSZ) ([1]; FeSSIF): 13 and 13 ± 4
Cmax ([1]; FeSSIF): 148 ± 3 µM
AUC (area under the dissolution curve) ([1]; FeSSIF): 15,670 ± 4612 μM × min
Final pH ([1]; FeSSIF): 5.01 ± 0.01
Keu ([coformer]eu/[drug]eu) ([2]; Blank FaSSGF, final pH 1.94): 0.0028 ± 0.0002 ×10^5
[4ABA]eu (coformer concentration at the eutectic point) ([2]; Blank FaSSGF, final pH 1.94): 27.3 ± 0.4 mM
Final pH (pH at equilibrium) ([2]; Blank FaSSGF, initial pH 1.60): 1.94 ± 0.01
Keu ([coformer]eu/[drug]eu) ([2]; Blank FaSSIF, final pH 5.12): 1.7 ± 0.6 ×10^5
[4ABA]eu (coformer concentration at the eutectic point) ([2]; Blank FaSSIF, final pH 5.12): 17.4 ± 0.1 mM
Final pH (pH at equilibrium) ([2]; Blank FaSSIF, initial pH 6.55): 5.12 ± 0.03
Keu ([coformer]eu/[drug]eu) ([2]; Blank FeSSIF, final pH 5.11): 1.2 ± 0.3 ×10^5
[4ABA]eu (coformer concentration at the eutectic point) ([2]; Blank FeSSIF, final pH 5.11): 14.5 ± 0.2 mM
Final pH (pH at equilibrium) ([2]; Blank FeSSIF, initial pH 5.03): 5.11 ± 0.01
Keu ([coformer]eu/[drug]eu) ([2]; FaSSIF, final pH 5.07): 0.06 ± 0.01 ×10^5
[4ABA]eu (coformer concentration at the eutectic point) ([2]; FaSSIF, final pH 5.07): 20.2 ± 0.4 mM
Final pH (pH at equilibrium) ([2]; FaSSIF, initial pH 6.50): 5.07 ± 0.04
Keu ([coformer]eu/[drug]eu) ([2]; FeSSIF, final pH 5.03): 0.010 ± 0.003 ×10^5
[4ABA]eu (coformer concentration at the eutectic point) ([2]; FeSSIF, final pH 5.03): 17.3 ± 0.5 mM
Final pH (pH at equilibrium) ([2]; FeSSIF, initial pH 5.03): 5.03 ± 0.14
decrease of Sco (cocrystal solubility) with pH ([2]; pH increases from 1.9 to 5.1): 20 times
Compound: CCC(C(C)O)n1ncn(-c2ccc(N3CCN(c4ccc(OCC5COC(Cn6cncn6)(c6ccc(F)cc6F)C5)cc4)CC3)cc2)c1=O.CCC(C(C)O)n1ncn(-c2ccc(N3CCN(c4ccc(OCC5COC(Cn6cncn6)(c6ccc(F)cc6F)C5)cc4)CC3)cc2)c1=O.Nc1ccc(C(=O)O)cc1.Nc1ccc(C(=O)O)cc1.Nc1ccc(C(=O)O)cc1 (centres unmarked) [PSZ-4ABA, posaconazole-4-aminobenzoic acid (PSZ-4ABA) cocrystal]

Compound: CC[C@@H]([C@H](C)O)n1ncn(-c2ccc(N3CCN(c4ccc(OC[C@@H]5CO[C@@](Cn6cncn6)(c6ccc(F)cc6F)C5)cc4)CC3)cc2)c1=O [PSZ, Posaconazole]
Cmax ([1]; FaSSIF): 4.5 ± 0.2 µM
AUC (area under the dissolution curve) ([1]; FaSSIF): 745 ± 18 µM·min
Final pH ([1]; FaSSIF): 6.58 ± 0.01
Cmax ([1]; FeSSIF): 7 ± 3 µM
AUC (area under the dissolution curve) ([1]; FeSSIF): 1190 ± 104 µM·min
Final pH ([1]; FeSSIF): 4.95 ± 0.01
solubility ([2]; aqueous buffer, Blank FaSSIF, final pH 5.12): 0.1 ± 0.04 µM (≈ 0.0701 µg/mL)
solubility ([2]; aqueous buffer, Blank FeSSIF, final pH 5.11): 0.12 ± 0.02 µM (≈ 0.0841 µg/mL)
solubility ([2]; simulated gastric fluid, Blank FaSSGF, final pH 1.94): 83 ± 4 µM (≈ 58.2 µg/mL)
solubility ([2]; FaSSIF, final pH 5.07): 3.6 ± 0.8 µM (≈ 2.52 µg/mL)
solubility ([2]; FeSSIF, final pH 5.03): 18 ± 5 µM (≈ 12.6 µg/mL)
fraction absorbed [3]: < 30%
Log P [4]: 4.6
aqueous solubility [4]: < 1 µg/mL
